Test results as given in patent US20160158200A1, “Combinations of Hepatitis C Virus Inhibitors” (priority 2013, published 2016).

Test system: HCV genotype-1a variant with glutamine 30 changed to glutamate in the NS5A protein
Type: cell-based
Details: test compound titrated with BMS-790052 fixed at 200 nM; genotype 1a Q30E replicon
Method in brief: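 Synergy was assessed by combining several fixed amounts of an NS5A-targeting compound with a titration of the second compound of interest.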

CC(C)(C)[C@H](NC(=O)C1CCC(F)(F)CC1)c1ncc(-c2ccc3cc4cc(-c5cnc([C@@H](NC(=O)C6CCC(F)(F)CC6)C(C)(C)C)[nH]5)ccc4cc3c2)[nH]1 [Compound B26]
Fold-Synergistic 1a (Q30E): >100 fold

CC(C)N(CC(F)(F)F)C(=O)C(=O)N[C@H](c1nc(-c2ccc(-c3ccc(-c4c[nH]c([C@@H](NC(=O)C(=O)N(CC(F)(F)F)C(C)C)C(C)(C)C)n4)cc3)cc2)c[nH]1)C(C)(C)C [Compound W-66]
Fold-Synergistic 1a (Q30E): >100 fold

CC(C)(C)[C@H](NC(=O)c1ccc(Cl)cn1)c1nc(-c2ccc(-c3ccc(-c4c[nH]c([C@@H](NC(=O)c5ccc(Cl)cn5)C(C)(C)C)n4)cc3)cc2)c[nH]1 [Compound N-53]
Fold-Synergistic 1a (Q30E): >100 fold

CC1(C(=O)N[C@H](c2ncc(-c3ccc(-c4ccc(-c5cnc([C@@H](NC(=O)C6(C)CCCCC6O)C(C)(C)C)[nH]5)cc4)cc3)[nH]2)C(C)(C)C)CCCCC1O (some centres unmarked) [Compound Y-97]
Fold-Synergistic 1a (Q30E): >100 fold

CC(C)(C(=O)N[C@H](c1nc(-c2ccc(-c3ccc(-c4c[nH]c([C@@H](NC(=O)C(C)(C)C(O)c5ccccc5)C(C)(C)C)n4)cc3)cc2)c[nH]1)C(C)(C)C)C(O)c1ccccc1 (single isomer, unassigned) [Compound N-127B]
Fold-Synergistic 1a (Q30E): >100 fold

CC(C)(C)[C@H](NC(=O)C(=O)N1CCCC(F)(F)C1)c1nc(-c2ccc(-c3ccc(-c4c[nH]c([C@@H](NC(=O)C(=O)N5CCCC(F)(F)C5)C(C)(C)C)n4)cc3)cc2)c[nH]1 [Compound W-46A]
Fold-Synergistic 1a (Q30E): >100 fold

CC(C)[C@H](NC(=O)C1CC(F)(F)C1)c1ncc(-c2ccc3c(c2)Cc2cc(-c4cnc([C@@H](NC(=O)C5CC(F)(F)C5)C(C)C)[nH]4)ccc2-3)[nH]1.O=C(O)C(F)(F)F [Compound N-71]
Fold-Synergistic 1a (Q30E): >100 fold

CC(C)(C)C(NC(=O)C1CCCCN1CC(F)(F)F)c1nc(-c2ccc(-c3ccc(-c4c[nH]c(C(NC(=O)C5CCCCN5CC(F)(F)F)C(C)(C)C)n4)cc3)cc2)c[nH]1 [Compound L-51]
Fold-Synergistic 1a (Q30E): >100 fold

CC(C)C(NC(=O)C(=O)N1CCCCCC1)c1nc(-c2ccc(-c3ccc(-c4c[nH]c(C(NC(=O)C(=O)N5CCCCCC5)C(C)C)n4)cc3)cc2)c[nH]1 (centres unmarked) [Compound W-52]
Fold-Synergistic 1a (Q30E): >100 fold

CC(C)CC(=O)N[C@H](c1ncc(-c2ccc(-c3ccc(-c4cnc([C@@H]5CCCN5C(=O)CC(C)C)[nH]4)cc3)cc2)[nH]1)C(C)C [Compound Y-16]
Fold-Synergistic 1a (Q30E): >10 fold

CC(C)[C@H](NC(=O)CC12CC3CC(CC(C3)C1)C2)c1ncc(-c2ccc(-c3ccc(-c4cnc([C@@H](NC(=O)CC56CC7CC(CC(C7)C5)C6)C(C)C)[nH]4)cc3)cc2)[nH]1 [Compound P-57]
Fold-Synergistic 1a (Q30E): >100 fold

CC1(C)CC(C(=O)N[C@H](c2nc(-c3ccc(-c4ccc(-c5c[nH]c([C@@H](NC(=O)C6CCOC(C)(C)C6)C(C)(C)C)n5)cc4)cc3)c[nH]2)C(C)(C)C)CCO1 (some centres unmarked) [Compound W-122]
Fold-Synergistic 1a (Q30E): >100 fold

CN(C)C(=N[C@H](c1ncc(-c2ccc(-c3ccc(-c4cnc([C@@H](NC(=O)C(C)(C)C5CCCC5)C(C)(C)C)[nH]4)cc3)cc2)[nH]1)C(C)(C)C)N(C)C [Compound B83]
Fold-Synergistic 1a (Q30E): >100 fold

CC(C)(C)[C@H](NC(=O)C(C)(C)C1(O)CCC(F)(F)CC1)c1ncc(C#Cc2ccc3cc(-c4cnc([C@@H](NC(=O)C(C)(C)C5(O)CCC(F)(F)CC5)C(C)(C)C)[nH]4)ccc3c2)[nH]1 [Compound B5A]
Fold-Synergistic 1a (Q30E): >100 fold

CC(C)N(C(=O)C(=O)NC(c1nc(-c2ccc(-c3ccc(-c4c[nH]c(C(NC(=O)C(=O)N(C(C)C)C5CC5)C5CC5)n4)cc3)cc2)c[nH]1)C1CC1)C1CC1 [Compound L-36]
Fold-Synergistic 1a (Q30E): >100 fold

CCCCC(=O)N[C@H](c1ncc(-c2ccc(-c3ccc(-c4cnc([C@@H](NC(=O)CCCC)C(C)C)[nH]4)cc3)cc2)[nH]1)C(C)C [Compound S-45]
Fold-Synergistic 1a (Q30E): >100 fold

COCC(C)(COC)C(=O)NC(c1nc(-c2ccc(-c3ccc(-c4c[nH]c(C(NC(=O)C(C)(COC)COC)C(C)(C)C)n4)cc3)cc2)c[nH]1)C(C)(C)C [Compound L-123]
Fold-Synergistic 1a (Q30E): >100 fold

CC(C)[C@H](NC(=O)c1c(F)cc(F)cc1F)c1ncc(-c2ccc(-c3ccc(-c4cnc([C@@H](NC(=O)c5c(F)cc(F)cc5F)C(C)C)[nH]4)cc3)cc2)[nH]1 [Compound S-92]
Fold-Synergistic 1a (Q30E): >100 fold

CC(C)[C@H](NC(=O)C1CC(=O)C1)c1nc(-c2ccc(-c3ccc(-c4c[nH]c([C@@H](NC(=O)C5CC(=O)C5)C(C)C)n4)cc3)cc2)c[nH]1 [Compound W-172]
Fold-Synergistic 1a (Q30E): >10 fold

CC(C)(C)OC(=O)NC1CCCCC1C(=O)N[C@H](c1nc(-c2ccc(-c3ccc(-c4c[nH]c([C@@H](NC(=O)C5CCCCC5NC(=O)OC(C)(C)C)C(C)(C)C)n4)cc3)cc2)c[nH]1)C(C)(C)C (single isomer, unassigned) [Compound W-23B]
Fold-Synergistic 1a (Q30E): >100 fold

CCCOC(=O)N[C@H](c1ncc(-c2ccc(-c3ccc(-c4cnc([C@@H](NC(=O)OCCC)C(C)C)[nH]4)cc3)cc2)[nH]1)C(C)C [Compound S-208]
Fold-Synergistic 1a (Q30E): >100 fold

CC(C)(C)[C@H](NC(=O)C1(NC(=O)CC2CC2)CCCCC1)c1nc(-c2ccc(-c3ccc(-c4c[nH]c([C@@H](NC(=O)C5(NC(=O)CC6CC6)CCCCC5)C(C)(C)C)n4)cc3)cc2)c[nH]1 [Compound W-276]
Fold-Synergistic 1a (Q30E): >100 fold

CC1(C)CCN(C(=O)C2(N3CCC(F)(F)CC3)COC2)C1c1nc(-c2ccc(-c3ccc(-c4c[nH]c(C5N(C(=O)C6(N7CCC(F)(F)CC7)COC6)CCC5(C)C)n4)cc3)cc2)c[nH]1 (centres unmarked) [Compound W-220]
Fold-Synergistic 1a (Q30E): >10 fold

CC(C)(C)[C@H](NC(=O)CC1CCC(F)(F)CC1)c1nc(-c2ccc(-c3ccc(-c4c[nH]c([C@@H](NC(=O)CC5CCC(F)(F)CC5)C(C)(C)C)n4)cc3)cc2)c[nH]1 [Compound N-112]
Fold-Synergistic 1a (Q30E): >100 fold

Cc1ccccc1CC(=O)N[C@H](c1ncc(-c2ccc(-c3ccc(-c4cnc([C@@H](NC(=O)Cc5ccccc5C)C(C)C)[nH]4)cc3)cc2)[nH]1)C(C)C [Compound S-39]
Fold-Synergistic 1a (Q30E): >100 fold

CC(C)[C@H](NC(=O)CC(F)(F)F)c1ncc(-c2ccc(-c3ccc(-c4cnc([C@@H](NC(=O)CC(F)(F)F)C(C)C)[nH]4)cc3)cc2)[nH]1 [Compound S-53]
Fold-Synergistic 1a (Q30E): >100 fold

CO[C@H](C)[C@H](NC(=O)[C@@]1(C)CCC(F)(F)CO1)c1nc(-c2ccc(-c3ccc(-c4c[nH]c([C@@H](NC(=O)[C@@]5(C)CCC(F)(F)CO5)[C@@H](C)OC)n4)cc3)cc2)c[nH]1 [Compound L-97]
Fold-Synergistic 1a (Q30E): >100 fold

COC(=O)N[C@H](C(=O)N1CCC[C@H]1c1nc(-c2ccc(-c3ccc(-c4c[nH]c([C@@H](NC(=O)C5CCC(F)(F)CC5)C(C)C)n4)cc3)cc2)c[nH]1)C(C)C [Compound Y-49]
Fold-Synergistic 1a (Q30E): >100 fold

CC(C)(C)[C@H](NC(=O)C(=O)N1CCC(F)(F)C1)c1nc(-c2ccc(-c3ccc(-c4c[nH]c([C@@H](NC(=O)C(=O)N5CCC(F)(F)C5)C(C)(C)C)n4)cc3)cc2)c[nH]1 [Compound W-22]
Fold-Synergistic 1a (Q30E): >100 fold

CC(C)(C(=O)N[C@H](c1nc(-c2ccc(-c3ccc(-c4c[nH]c([C@@H](NC(=O)C(C)(C)C(O)C5CCC(F)(F)CC5)C(C)(C)C)n4)cc3)cc2)c[nH]1)C(C)(C)C)C(O)C1CCC(F)(F)CC1 (single isomer, unassigned) [Compound N-143C]
Fold-Synergistic 1a (Q30E): >100 fold

CC(=O)N(C)C1(C(=O)N[C@H](c2nc(-c3ccc(-c4ccc(-c5c[nH]c([C@@H](NC(=O)C6(N(C)C(C)=O)CCC6)C(C)(C)C)n5)cc4)cc3)c[nH]2)C(C)(C)C)CCC1.O=C(O)C(F)(F)F.O=C(O)C(F)(F)F [Compound L-12]
Fold-Synergistic 1a (Q30E): >100 fold

C#CCOC(=O)N1CCC[C@H]1c1ncc(-c2ccc(-c3ccc(-c4cnc([C@@H]5CCCN5C(=O)OCC#C)[nH]4)cc3)cc2)[nH]1 [Compound S-224]
Fold-Synergistic 1a (Q30E): >10 fold

CC(C)[C@H](NC(=O)OC(C)(C)C)c1ncc(-c2ccc(-c3ccc(-c4cnc([C@@H](NC(=O)C(C)(C)C)C(C)C)[nH]4)cc3)cc2)[nH]1 [Compound Y-51]
Fold-Synergistic 1a (Q30E): >100 fold

CC(C)(C(=O)N[C@H](c1nc(-c2ccc(-c3ccc(-c4c[nH]c([C@@H](NC(=O)C(C)(C)C(=O)N5CCOCC5)C(C)(C)C)n4)cc3)cc2)c[nH]1)C(C)(C)C)C(=O)N1CCOCC1 [Compound W-135]
Fold-Synergistic 1a (Q30E): >10 fold

CC(C)[C@H](NC(=O)c1ccc(C#N)cc1)c1ncc(-c2ccc(-c3ccc(-c4cnc([C@@H](NC(=O)c5ccc(C#N)cc5)C(C)C)[nH]4)cc3)cc2)[nH]1 [Compound S-81]
Fold-Synergistic 1a (Q30E): >100 fold

CC(C)[C@H](NC(=O)c1ccc(C#N)s1)c1ncc(-c2ccc(-c3ccc(-c4cnc([C@@H](NC(=O)c5ccc(C#N)s5)C(C)(C)C)[nH]4)cc3)cc2)[nH]1 [Compound Y-45]
Fold-Synergistic 1a (Q30E): >100 fold

CC1(C(=O)NC(c2nc(-c3ccc(-c4ccc(-c5c[nH]c(C(NC(=O)C6(C)CC(F)(F)CCO6)C(C)(C)C)n5)cc4)cc3)c[nH]2)C(C)(C)C)CC(F)(F)CCO1 (centres unmarked) [Compound Y-75]
Fold-Synergistic 1a (Q30E): >100 fold

CC(C)[C@H](NC(=O)C12CCC(C1)C(C)(C)C2O)c1nc(-c2ccc(-c3ccc(-c4c[nH]c([C@@H](NC(=O)C56CCC(C5)C(C)(C)C6O)C(C)C)n4)cc3)cc2)c[nH]1 (single isomer, unassigned) [Compound Y-115]
Fold-Synergistic 1a (Q30E): >100 fold

CC(C)[C@H](NC(=O)c1cccs1)c1ncc(-c2ccc(-c3ccc(-c4cnc([C@@H](NC(=O)c5cccs5)C(C)C)[nH]4)cc3)cc2)[nH]1 [Compound S-14]
Fold-Synergistic 1a (Q30E): >100 fold

COc1ncccc1C(=O)N[C@H](c1ncc(-c2ccc(-c3ccc(-c4cnc([C@@H](NC(=O)c5cccnc5OC)C(C)C)[nH]4)cc3)cc2)[nH]1)C(C)C [Compound S-52]
Fold-Synergistic 1a (Q30E): >100 fold

CC1(C)C2CCC(C(=O)N[C@H](c3nc(-c4ccc(-c5ccc(-c6c[nH]c([C@@H](NC(=O)C78CCC(C7)C(C)(C)C8O)C7(C)CC7)n6)cc5)cc4)c[nH]3)C3(C)CC3)(C2)C1O (single isomer, unassigned) [Compound Y-119]
Fold-Synergistic 1a (Q30E): >100 fold
